Laboratory results taken from patent publication US7589100B2, “Non-hygroscopic and powdery amorphous pimecrolimus” (TEVA Gyógyszergyár Zártkörún Müködö Részvénytársaság, priority 2004, dated 2009).

Test: Hygroscopicity: water content (LOD) of samples stored at different relative humidity for one week
Assay type: physicochemical
Description: As used herein, the term “non-hygroscopic” refers to a compound that contains no more than about 2% wt/wt of water, more preferably no more than about 1.5% wt/wt of water, most preferably no more than about 1% wt/wt of water, when exposed to 80% humidity, at room temperature for 1 week. The hygroscopicity of amorphous pimecrolimus of the present invention was examined by measuring the water content in samples stored at different relative humidity value (RH) (0, 40, 60, and 80 percent) for a period of one week.

For `CC[C@@H]1/C=C(\C)C[C@H](C)C[C@H](OC)[C@H]2O[C@@](O)(C(=O)C(=O)N3CCCC[C@H]3C(=O)O[C@H](/C(C)=C/[C@@H]3CC[C@H](Cl)[C@H](OC)C3)[C@H](C)[C@@H](O)CC1=O)[C@H](C)C[C@@H]2OC` [Pimecrolimus, (1R,9S,12S,13R,14S,17R,18E,21 S,23S,24R,25S,27R)-12-[(1E)-2-{(1R,3R,4S)-4-chloro-3-methoxycyclohexyl}-1-methylvinyl]-17-ethyl-1,14-dihydroxy-23,25-dimethoxy-13,19,21,27-tetramethyl-11,28-dioxa-4-aza-tricyclo[22.3.1.0^4,9]octacos-18-ene-2,3,10,16-tetraone], the “hygroscopicity (result in words)” value (RH 0 to 80 percent, one week) was “non-hygroscopic”, the “LOD (%)” value (original sample, before storage) was 1.1% and the “LOD (%)” value (stored at RH 0 % for one week) was 0.8%. For the same compound, the “LOD (%)” value (stored at RH 40 % for one week) was 1.1%, the “LOD (%)” value (stored at RH 60 % for one week) was 1.1% and the “LOD (%)” value (stored at RH 80 % for one week) was 1.1%. The “water content of the samples” value (stored at relative humidity from about 0 percent to about 80 percent, one week) was “about 1%”.
